Data: US12686668B2, “Leukotriene synthesis inhibitors” (Naegis Pharmaceuticals Inc., priority 2019, dated 2026)
Where two headings read alike, the source gives them in different places.

Experiments:
[1] = tested on: LTC4 production in MC/9 cells; experiment: MC/9 HPLC assay, inhibition of LTC4 production; format: cell-based; conditions: Mus musculus; for inhibition at 3 µM: MC9, 3 μM, A23187 stimulated
Procedure, shortened: (§1)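 MC/9 cells (3×10^6 in HBSS) pre-incubated 30 min with compound, then stimulated 20 min at room temperature with 1 μM A23187. After methanol quench and C18 solid-phase extraction, LTB4 and LTC4 quantified by HPLC against reference standards; inhibition relative to control samples.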

[2] = molecular target: T1, recombinant human leukotriene A4 hydrolase enzyme (Homo sapiens, UniProt P09960); experiment: Amino-peptidase assay, alanine-4-nitroanalide; format: biochemical; conditions: negative values = augmented peptidase activity, read-out: % Inhibition aminopeptidase-Alanine-4-nitroanalide activity of LTA4H (3 μM)
T1 construct: purchased Cayman Chemical 10007817
T1 sequence (P09960 1-611): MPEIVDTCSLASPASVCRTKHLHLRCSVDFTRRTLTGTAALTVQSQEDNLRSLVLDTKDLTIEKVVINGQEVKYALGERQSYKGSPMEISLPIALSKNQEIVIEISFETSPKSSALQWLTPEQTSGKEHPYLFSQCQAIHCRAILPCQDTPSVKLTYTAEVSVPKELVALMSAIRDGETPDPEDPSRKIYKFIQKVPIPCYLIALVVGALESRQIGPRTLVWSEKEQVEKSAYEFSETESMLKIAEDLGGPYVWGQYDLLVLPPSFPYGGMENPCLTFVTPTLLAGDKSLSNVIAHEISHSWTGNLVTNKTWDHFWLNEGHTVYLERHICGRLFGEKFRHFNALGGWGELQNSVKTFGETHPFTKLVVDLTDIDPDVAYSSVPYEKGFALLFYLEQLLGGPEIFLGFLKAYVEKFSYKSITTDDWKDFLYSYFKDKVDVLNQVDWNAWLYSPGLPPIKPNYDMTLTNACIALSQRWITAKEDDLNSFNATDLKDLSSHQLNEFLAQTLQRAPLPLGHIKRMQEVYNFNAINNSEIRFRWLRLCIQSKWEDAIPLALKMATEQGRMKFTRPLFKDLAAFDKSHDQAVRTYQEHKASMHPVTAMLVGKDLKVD
Procedure, shortened: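 Compounds pre-incubated in the dark with recombinant human LTA4H (0.5 μg) in 50 mM Tris-HCl, 100 mM KCl; reaction started with alanine-4-nitroanilide (6 mM solution). Aminopeptidase rate followed as A405 from 4-nitroaniline, referenced to a standard; inhibition calculated versus controls, with negative values indicating augmented activity.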

[3] = tested on: LTB4 production in MC/9 cells; experiment: MC/9 HPLC assay, inhibition of LTB4 production; format: cell-based; conditions: Mus musculus
Procedure, shortened: as §1

[4] = molecular target: T1, recombinant human leukotriene A4 hydrolase enzyme; experiment: Amino-peptidase assay, PGP; format: biochemical; conditions: concentration not given
Procedure: A series of compound concentrations were pre-incubated with 50 ng of recombinant human leukotriene A4 hydrolase enzyme (Cayman Chemical, 10007817) in 50 L assay buffer (50 mM Tris-HCl, 100 mM KCl). The reaction was stimulated by adding 50 L 1 mM proline-glycine-proline (Bachem, H-7284) and incubated for 30 minutes at 37° C. The reaction was stopped with the addition of 150 μL of glacial acetic acid. The amount of free proline released from the peptide was detected through a reaction with ninhydrin. 150 μL of 25 mg/mL ninhydrin (BDH, B10132) in 60:40 acetic acid/water was added to each sample, and boiled for 30 minutes at 100° C. and once samples had cooled to room temperature, 350 μL of toluene was added to extract the ninhydrin reaction product. The amount of free proline was determined by comparing the absorbance at 520 nm to the L-proline (Sigma Aldrich, 81709) reference standard. Inhibition of free proline production was calculated based on control samples.

[5] = tested on: LTB4 production in porcine or human whole blood; experiment: Whole blood HPLC assay, inhibition of LTB4 production; format: cell-based; conditions: 5 point curve, porcine or human whole blood (not specified)
Procedure: Porcine or human whole blood (1 mL) was pre-incubated with a series of concentrations of compound solubilized in DMSO for 30 minutes. Production of leukotrienes were stimulated with the addition of 20 μM calcium ionophore (A23187), diluted from a 4 mM DMSO stock in HBSS, and incubated at room temperature for 20 minutes. In porcine blood 20 μM arachidonic acid was added in addition to the calcium ionophore. The blood was centrifuged at 2,000 rpm for 15 minutes, and the plasma fraction removed for further processing. Plasma samples were diluted with 500 μL acidified water (HCl pH 3.0) and loaded onto C18 SEP-PAK columns (Canadian Lifesciences IS12000) for solid phase extraction. The leukotrienes were analyzed by HPLC using an ACE C18 column (4.5 mm×150 mm, 5 m) eluted with acetonitrile/methanol/water mixture with H3PO4, pH 3.5 (37:26:37) with a flow rate of 1.8 mL/min. The amount of LTB4 (Cayman Chemical, 20110) was calculated based on reference standards and the level of inhibition of LTB4 production induced by the test compounds was calculated relative to control samples. The results provided in Table 3 are IC50 values calculated based on a 5 point curve, where Compound No. refers to the compounds identified in Table 1.

[6] = tested on: AA-induced ear edema; experiment: Arachidonic acid (AA) induced mouse ear edema model; format: in vivo, CD-1 mice; conditions: 4 hrs and 1 hr before AA 2 mg/ear, mice; for % Inhibition AA-Induced ear edema (0.3 mg/ear): topical 0.3 mg/ear; for % Inhibition AA-Induced ear edema (1 mg/ear): topical 1 mg/ear
Procedure: One group serves as a control and receives 20 μL of vehicle applied to the pinna of each ear (10 μL to the inside and 10 μL to the outside of the pinna). One or more additional groups serve as test groups. The test compound was applied to the pinna of one ear of the mouse in a 20 μL volume (10 μL to the inside and 10 μL to the outside of the pinna). Test compound or control vehicle (acetone/1% DMSO) was applied topically to the right ear 4 and 1 hour before the application of 2 mg/ear AA as a stimulus to both the inner and outer surfaces of CD-1 mice. The left ears received vehicle (acetone/1% DMSO) alone. The animal was lightly anesthetized again using isofluorane to enable application of the stimulus. For the control group, arachidonic acid (2 mg/ear) was applied as the stimulus to the pinna of one ear only, in a total volume of 20 μL of acetone (10 μL applied to the inside and 10 μL to the outside of the pinna). The other ear received 20 μL of acetone. This served to determine the increase in ear weight due to arachidonic acid in the absence of test compounds. For the test groups, arachidonic acid (2 mg/ear) was applied as the stimulus to the pinna of each ear, in a total volume of 20 μL of acetone (10 μL applied to the inside and 10 μL to the outside of the pinna). The animal was allowed to recover after application of the stimulus in each case. After 60 minutes the animal was euthanized and a standard biopsy sample was taken from each ear using a 6 mm skin biopsy punch (Acuderm). Ear edema was determined by the increase in weight of the tissue due to accumulation of fluid as a result of plasma extravasation. The ears were weighed separately using a balance suitable to record 0.1 mg. For the control group, the difference in ear weights was determined by subtracting the weight of the unstimulated ear from the stimulated ear, and this was a measure of the increase in ear weight due to edema. The percentage increase in ear weight was determined by dividing the increase in stimulated ear weight by the unstimulated ear weight and multiplying by 100. For the test groups, the difference in ear weights was determined by subtracting the weight of the untreated ear from the weight of the ear treated with test compound. The percent inhibition of the increase in ear weight for ears treated with the test compound was estimated by first subtracting the mean ear weight of the untreated controls from each tissue to determine the increase in tissue weight due to application of the arachidonic acid. The percent inhibition=1−(test drug stimulated ear (mg)/control stimulated ear (mg))×100. In Table 5, the data from inhibition of AA-induced ear edema in mice by topical application of compounds is provided. Compounds (0.3 or 1 mg/ear) were applied topically to the ear 4 hrs and 1 hr prior to application of arachidonic acid (AA; 2 mg/ear).

[7] = MC9, Table 2 column 3, no concentration in head (1 μM according to b732), read-out: % Inhibition LTC4
[8] = MC9, Table 2 column 4, no concentration in head (1 μM according to b732), read-out: % Inhibition LTB4
[9] = MC9, 1 μM, read-out: % inhibition LTC4 (1 μM)
[10] = MC9, 1 μM, read-out: % inhibition LTB4 (1 μM)

inhibition at 3 µM [2]	% Inhibition aminopeptidase-PGP activity of LTA4H [4]	IC50 [5]	Structure (SMILES)	inhibition at 3 µM [1]	inhibition at 1 µM [1, 7]	inhibition at 1 µM [3, 8]	inhibition at 1 µM [1, 9]	inhibition at 1 µM [3, 10]	% Inhibition AA-Induced ear edema (0.3 mg/ear) [6]	% Inhibition AA-Induced ear edema (1 mg/ear) [6]
< 25%	25-50%		CCC(=O)CCc1ccc(Oc2nc3ccccc3s2)c(F)c1 [Compound 152, 1-[4-(1,3-benzothiazol-2-yloxy)-3-fluorophenyl]-pentan-3-one]	30 to 50%	30 to 50%	50 to 70%				
		1 to 10 µM	COc1cc(CCC(C)(O)C(F)(F)F)ccc1Oc1nc2c(SC)cccc2s1 (centres unmarked) [Compound 119, 1,1,1-trifluoro-4-(3-methoxy-4-{[4-(methylsulfanyl)-1,3-benzothiazol-2-yl]oxy}phenyl)-2-methylbutan-2-ol]	> 90%	> 90%	> 90%			30-50%	50-70%
> 75%	50-75%		CCC(O)CCc1ccc(Oc2nc3ccccc3s2)c(OCC2CC2)c1 (centres unmarked) [Compound 187, 1-[4-(1,3-benzothiazol-2-yloxy)-3-(cyclopropylmethoxy)-phenyl]-pentan-3-ol]	50 to 70%						
> 75%	>75%		CCC(O)CCc1ccc(Oc2nc3ccccc3s2)c(OC2CCCC2)c1 (centres unmarked) [Compound 186, 1-[4-(1,3-benzothiazol-2-yloxy)-3-(cyclopentyloxy)-phenyl]pentan-3-ol]	70 to 90%						
0 to 50%	>75%		CC(O)(c1ccc(Oc2nc3c(F)cc(F)cc3s2)cc1)C(F)(F)F (centres unmarked) [Compound 181, 2-{4-[(4,6-difluoro-1,3-benzothiazol-2-yl)oxy]phenyl}-1,1,1-trifluoropropan-2-ol]	< 10%						
		1 to 10 µM	CCC(O)(CCc1ccc(Oc2nc3ccccc3s2)c(OC)c1)C(F)(F)F (centres unmarked) [Compound 103, 1-[4-(1,3-benzothiazol-2-yloxy)-3-methoxyphenyl]-3-(trifluoromethyl)pentan-3-ol]	> 90%	50 to 70%	50 to 70%	50 to 70%	50 to 70%	30-50%	70-90%

Second part, the compound before the results:

Structure (SMILES)	inhibition at 3 µM [2]	% Inhibition aminopeptidase-PGP activity of LTA4H [4]	IC50 [5]	inhibition at 3 µM [1]	inhibition at 1 µM [1, 7]	inhibition at 1 µM [3, 8]	inhibition at 1 µM [1, 9]	inhibition at 1 µM [3, 10]	% Inhibition AA-Induced ear edema (0.3 mg/ear) [6]	% Inhibition AA-Induced ear edema (1 mg/ear) [6]
COc1cc(CCC(C)(O)C(F)(F)F)ccc1OCc1ccc2ccccc2n1 (centres unmarked) [Compound 184, 1,1,1-trifluoro-4-[3-methoxy-4-(quinolin-2-ylmethoxy)phenyl]-2-methylbutan-2-ol]	< 25%	25-50%	0.1 to 1 µM							
CCC(O)(CCc1ccc(Oc2nc3ccccc3s2)cc1)C(F)(F)F (centres unmarked) [Compound 150, 1-[4-(1,3-benzothiazol-2-yloxy)phenyl]-3-(trifluoromethyl)pentan-3-ol]	25 to 50%	<25%	1 to 10 µM	70 to 90%	10 to 30%	50 to 70%	10 to 30%	50 to 70%		
CCC(=O)CCc1ccc(Oc2nc3ccccc3s2)c(Cl)c1 [Compound 149, 1-[4-(1,3-benzothiazol-2-yloxy)-3-chlorophenyl]pentan-3-one]	< 25%	25-50%			30 to 50%	50 to 70%				
CCC(O)(CCc1ccc(Oc2nc3ccc(F)cc3s2)c(OC)c1)C(F)(F)F (centres unmarked) [Compound 108, 1-{4-[(6-fluoro-1,3-benzothiazol-2-yl)oxy]-3-methoxyphenyl}-3-(trifluoromethyl)pentan-3-ol]			1 to 10 µM	50 to 70%	70 to 90%	> 90%			<10%	30-50%
CNC(c1ccc(Oc2nc3ccccc3s2)cc1)C(F)(F)F (centres unmarked) [Compound 178, 1-[4-(1,3-benzothiazol-2-yloxy)phenyl]-2,2,2-trifluoro-N-methylethanamine]	70 to 90%	70-90%		< 10%						
CC(O)(CCc1ccc(Oc2nc3ccccc3o2)cc1)c1ccccc1 (centres unmarked) [Compound 147, 4-[4-(1,3-benzoxazol-2-yloxy)phenyl]-2-phenylbutan-2-ol]	50 to 75%	25-50%			30 to 50%	> 90%				
CC(CCc1ccc(OCc2ccc3ccccc3n2)cc1)N1CCCC1 (centres unmarked) [Compound 190]	< 25%	25-50%		30 to 50%						
